Patent publication US20250074901A1, “NOVEL HETEROARYL COMPOUNDS” (ICAGEN, LLC, priority 2021, published 2025)

Molecular target: T1, Kv7.2 (Homo sapiens, UniProt O43526)
T1 construct: expressed in transfected cells
Assay: Activation of Kv7.2 (in vitro assay, concentration response curve)
Type: cell-based
Conditions: for Emax: Kv7.2 activation max %; for EC50: activation of Kv7.2
In short: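 Agonist activity was measured in vitro across a range of compound concentrations and plotted as a sigmoidal concentration–response curve. EC50 is the concentration giving 50% of that compound's own maximal response (Emax).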

Row | Structure (SMILES) | Emax | EC50
1 | [2H]C([2H])(NC(=O)NC12CCC(F)(CC1)CC2)c1ccnc(OC(F)F)c1 [Example 251, 1-[dideuterio-[2-(difluoromethoxy)pyridin-4-yl]methyl]-3-(4-fluoro-1-bicyclo[2.2.2]octanyl)urea] | 60% | 130 nM
2 | O=C(NC(CO)c1ccnc(OC(F)F)c1)NC12CCC(F)(CC1)CC2 (centres unmarked) [Example 85, 1-[1-[2-(difluoromethoxy)pyridin-4-yl]-2-hydroxyethyl]-3-(4-fluoro-1-bicyclo[2.2.2]octanyl)urea] | 74% | 420 nM
3 | O=C(NCc1ccnc(OC(F)F)c1)NC1COc2ccccc2C1 (centres unmarked) [Example 192, 1-[[2-(difluoromethoxy)pyridin-4-yl]methyl]-3-(3,4-dihydro-2H-chromen-3-yl)urea] | 51% | 240 nM
4 | O=C(NCc1ccnc(OCC(F)CF)c1)NC12CC(F)(C1)C2 (centres unmarked) [Example 216, 1-[[2-(2,3-difluoropropoxy)pyridin-4-yl]methyl]-3-(3-fluoro-1-bicyclo[1.1.1]pentanyl)urea] | 50% | 1470 nM
5 | O=C(NCc1ccnc(OC(F)F)c1)N[C@H]1CC[C@H](OC(F)F)CC1 [Example 266, 1-[(1r,4r)-4-(difluoromethoxy)cyclohexyl]-3-[[2-(difluoromethoxy)pyridin-4-yl]methyl]urea] | 49% | 300 nM
6 | N#Cc1cc(CNC(=O)N[C@H]2C[C@@H]3CC[C@H]2C3)ccn1 (racemic) [Example 34, 1-[(2-cyanopyridin-4-yl)methyl]-3-[rac-(1R,2R,4S)-2-bicyclo[2.2.1]heptanyl]urea] | 49% | 2770 nM
7 | CC(F)(F)COc1cc(CNC(=O)NC23CCC(F)(CC2)CC3)ccn1 [Example 122, 1-[[2-(2,2-difluoropropoxy)pyridin-4-yl]methyl]-3-(4-fluoro-1-bicyclo[2.2.2]octanyl)urea] | 61% | 190 nM
8 | C[C@H](F)COc1cc(CNC(=O)NC23CCC(F)(CC2)CC3)ccn1 [Example 156, 1-(4-fluoro-1-bicyclo[2.2.2]octanyl)-3-[[2-[(2S)-2-fluoropropoxy]pyridin-4-yl]methyl]urea] | 50% | 560 nM
9 | O=C(NCc1ccnc(OC(F)F)c1)Nc1cncc(Cl)c1 [Example 161, 1-(5-chloropyridin-3-yl)-3-[[2-(difluoromethoxy)pyridin-4-yl]methyl]urea] | 43% | 1050 nM
10 | O=C(NCc1ccnc(-n2cccn2)c1)Nc1cccc(Cl)c1 [Example 4, 1-(3-chlorophenyl)-3-[(2-pyrazol-1-ylpyridin-4-yl)methyl]urea] | 60% | 430 nM
11 | O=C(NCc1ccnc(OC(F)F)c1)Nc1ccc(F)c(F)c1 [Example 186, 1-[[2-(difluoromethoxy)pyridin-4-yl]methyl]-3-(3,4-difluorophenyl)urea] | 62% | 550 nM
12 | Cc1cc(NC(=O)NC(CO)c2ccnc(OCC(F)(F)F)c2)ccc1F (centres unmarked) [Example 205, 1-(4-fluoro-3-methylphenyl)-3-[2-hydroxy-1-[2-(2,2,2-trifluoroethoxy)pyridin-4-yl]ethyl]urea] | 64% | 240 nM
13 | CC(Oc1cc(CNC(=O)N[C@H]2C[C@H](C(F)(F)F)C2)ccn1)C(F)(F)F (some centres unmarked) [Example 221, 1-[(1r,3r)-3-(trifluoromethyl)cyclobutyl]-3-[[2-(1,1,1-trifluoropropan-2-yloxy)pyridin-4-yl]methyl]urea] | 78% | 70 nM
14 | O=C(Nc1cccc(CF)c1)NC(CO)c1ccnc(OCC(F)(F)F)c1 (centres unmarked) [Example 232, 1-[3-(fluoromethyl)phenyl]-3-[2-hydroxy-1-[2-(2,2,2-trifluoroethoxy)pyridin-4-yl]ethyl]urea] | 47% | 250 nM
15 | O=C(NCc1ccnc(OC(F)F)c1)Nc1cccc(CF)c1 [Example 132, 1-[[2-(difluoromethoxy)pyridin-4-yl]methyl]-3-[3-(fluoromethyl)phenyl]urea] | 43% | 1070 nM
16 | O=C(Nc1cccc(Cl)c1)NC(CO)c1ccnc(OCC(F)F)c1 (centres unmarked) [Example 259, 1-(3-chlorophenyl)-3-[1-[2-(2,2-difluoroethoxy)pyridin-4-yl]-2-hydroxyethyl]urea] | 63% | 240 nM
17 | O=C(NCc1cnnc(OCC(F)(F)F)c1)N[C@H]1C[C@H](C(F)(F)F)C1 [Example 215] | 40% | 6830 nM
18 | O=C(NCc1ccnc(OC(F)F)c1)NC(C1CC1)C(F)(F)F (centres unmarked) [Example 106, 1-(1-cyclopropyl-2,2,2-trifluoroethyl)-3-[[2-(difluoromethoxy)pyridin-4-yl]methyl]urea] | 47% | 820 nM
19 | O=C(NCc1ccnc(OCC(F)(F)F)c1)NCC1CC(C(F)(F)F)C1 (centres unmarked) [Example 71, 1-[[2-(2,2,2-trifluoroethoxy)pyridin-4-yl]methyl]-3-[[3-(trifluoromethyl)cyclobutyl]methyl]urea] | 53% | 230 nM

The remaining lines, values ahead:

Row | Emax | EC50 | Structure (SMILES)
20 | 77% | 140 nM | CCC1CC(NC(=O)NCc2ccnc(OC(F)F)c2)C1 (centres unmarked) [Example 60, 1-[[2-(difluoromethoxy)pyridin-4-yl]methyl]-3-(3-ethylcyclobutyl)urea]
21 | 56% | 4270 nM | O=C(NCc1ccnc(OC(F)F)c1)NC1C[C@@H](F)[C@@H](F)C1 (mixture of isomers) [Example 234, 1-[[2-(difluoromethoxy)pyridin-4-yl]methyl]-3-[rac-(3R,4S)-3,4-difluorocyclopentyl]urea]
22 | 49% | 430 nM | O=C(NCc1ccnc(OC(F)F)c1)NC1CCC(OC(F)F)C1 (centres unmarked) [Example 264, 1-[3-(difluoromethoxy)cyclopentyl]-3-[[2-(difluoromethoxy)pyridin-4-yl]methyl]urea]
23 | 49% | 4910 nM | O=C(NCc1ccnc(OC(F)F)c1)N[C@H]1C[C@H]2CCC[C@@]2(CO)C1 (racemic) [Example 112, 1-[[2-(difluoromethoxy)pyridin-4-yl]methyl]-3-[rac-(2R,3aS,6aS)-6a-(hydroxymethyl)-2,3,3a,4,5,6-hexahydro-1H-pentalen-2-yl]urea]
24 | 77% | 3490 nM | O=C(NCc1ccnc(OC(F)F)c1)NC1CCCC1(F)F (centres unmarked) [Example 113, 1-(2,2-difluorocyclopentyl)-3-[[2-(difluoromethoxy)pyridin-4-yl]methyl]urea]
25 | 68% | 160 nM | O=C(NCc1ccnc(OC(F)F)c1)N[C@@H]1CC[C@H](C(F)(F)F)C1 [Example 146, 1-[[2-(difluoromethoxy)pyridin-4-yl]methyl]-3-[(1R,3S)-3-(trifluoromethyl)cyclopentyl]urea]
26 | 62% | 1230 nM | O=C(NCc1ccnc(OC(F)F)c1)NC1CCC1 [Example 45, 1-cyclobutyl-3-[[2-(difluoromethoxy)pyridin-4-yl]methyl]urea]
27 | 71% | 5860 nM | O=C(NCc1ccnc(OC(F)F)c1)N[C@@H]1C[C@H]2CC[C@@H]1O2 (racemic) [Example 102, 1-[[2-(difluoromethoxy)pyridin-4-yl]methyl]-3-[rac-(1R,2S,4S)-7-oxabicyclo[2.2.1]heptan-2-yl]urea]
28 | 52% | 1870 nM | O=C(NCc1ccnc(OC(F)F)c1)N[C@H]1C[C@H](F)C1 [Example 67, 1-[[2-(difluoromethoxy)pyridin-4-yl]methyl]-3-((1r,3r)-3-fluorocyclobutyl)urea]
